Reference: patent US20250222143A1, “TARGETED RADIOTHERANOSTICS BASED ON POLYAZAMACROCYCLIC, MIXED-DONOR SCAFFOLDS LINKED TO A TARGETING VECTOR” (The Research Foundation for the State University of New York, priority 2021, published 2025)
“And” between values parts separate entries of the source, which are not always exact repeats. Equal entries are not always repeated. Where two headings read alike, the source gives them in different places.

What was measured:
human serum albumin [1] = target: T1, human serum albumin (Homo sapiens, UniProt P02768); assay: Binding to human serum albumin (ultrafiltration, Lu in filtrate by ICP-OES)
Procedure: (§1) To measure HSA binding of the complexes, a 0.1 mM solution (determined by ICP-OES) of the corresponding ^natLu complex in 4.5% w/v HSA was prepared and pipetted into an Amicon Ultra-0.5 Centrifugal Filter Unit (50 KDa cutoff, Millipore, UFC500396). The mixture was incubated at 37° C. for 15 min and subsequently centrifuged at 12000 rpm for 10 min. Binding is determined by measurement of Lu content in the filtrate by ICP-OES and compared to non-specific binding to the filter in absence of HSA.
(§2) To this end, each ligand was incubated at 37° C. for 15 minutes in PBS with or without 4.5% human serum albumin to simulate in vivo protein concentration. Each mixture was filtered through a 50 KDa MW cutoff filter and the ^natLu content of the filtrate was measured by ICP-OES. ^natLu-mpaten was used as a chelator-only control with no targeting functionality and thus no expected interaction with human serum albumin.

PSMA [2] = target: T2, PSMA (Homo sapiens, UniProt Q04609); settings: value taken from literature; cited from earlier work
human serum albumin [3] = target: T1, human serum albumin; settings: 15 min, 0.1 mM
Procedure: as §1, §2

[4] = Formulation stability of [Sc-^18F(picaga-DUPA)]^- by radioHPLC; type: physicochemical
Procedure: The stability of [Sc-^18F(picaga-DUPA)]^− in both DPBS and saline was evaluated for up to 4 h. It was determined that [Sc-^18F(picaga-DUPA)]^− was stable in both DPBS and saline for at least 4 h (FIG. 7A, B).
The [^18F]KF stock solution was prepared as previously described (39.4 mCi, 693 μL, pH 2.5). The Sc-^18F precursor was formed via direct addition of 200 μL 0.25 M ammonium acetate (pH 4.1) buffer and 20 nmol ScCl3 stock (0.25 eq.) to the [^18F]KF stock. Following incubation at room temperature for 10 minutes, 79.8 nmol picaga-DUPA (1 eq.) was added to 400 μL of the Sc-^18F precursor stock solution (13.11 mCi), then incubated at 100° C. for 25 minutes. The major [^18F]Sc—F(picaga)-DUPA species was separated the minor isomer and Sc-^18F via analytical radioHPLC (Method C). (FIG. 34) Purified [^18F]Sc—F(picaga)-DUPA complex was concentrated to dryness under reduced pressure and formulated for injection in DPBS (2.11 mCi, 550 μL). Dose formulation stability was analyzed at 0 and 4 hours (FIG. 34A), before and after in vivo experiments, via radioHPLC (Method C). Apparent molar activity: 164 mCi/μmol.

[5] = cited from earlier work
[6] = Spectrophotometric pH-dependent titration (complex formation pKa, speciation); type: physicochemical
Source text: As was previously shown, radiolabeling of Lu-177 with L1 is not feasible at room temperature, in part due to the comparatively high formation pKa of the [Lu(L1)] coordination complex (pH 2.4) (Vaughn, B. A. et al. 2021).

PSMA + and PSMA − tumors = settings: previous work, 2 h post-injection, n = 4, cited from earlier work
[7] = Dose formulation stability of ^177Lu-radiolabeled ligands by radio-HPLC; type: physicochemical; settings: DMSO:NH4OAc:phosphate buffered saline, room temperature
Procedure: The stability for ^177Lu-radiolabeled ligands was evaluated by radio-HPLC for radiolytic degradation and decomplexation at relevant time points concentrations for dose preparation, storage, and administration. (picaga)-HSA was radiolabeled as previously described at a specific activity of 0.08 mCi/nmol (3.0 MBq/nmol) and diluted in PBS. A 0.1 mL aliquot was removed, stored at room temperature, and tested for stability by radio-HPLC. The activity concentration at t=0 was 0.12 mCi in 0.1 mL.
Under the same conditions, ^177Lu-PSMA-617 was determined to be 80% intact.

PSMA+PC-3 PIP tumors [8] = assay: Single dose radiotherapy study in PC-3 PIP tumor-bearing mice; settings: single dose 3.7 MBq
Procedure: Twelve-week-old male mice were inoculated subcutaneously on the right shoulder with PSMA+PC-3 PIP cells (0.7×10^6/mouse in 1:2 DPBS pH 7.4: Matrigel). Tumors grew nine days before treatment with an approximate volume of 100 mm^3 at day 0. Three groups of mice (n=6) (cohort A, B, and C) with statistically similar body weights and tumor volumes were injected at day 0 of the therapy study. Group A received saline only. […] Following administration of radioligand or vehicle, the mice were monitored by measuring the tumor size and body weight over 60 days. Mice were euthanized when the predefined end point criteria were reached, or when the study was terminated at day 60. The relative body weight (RBW) was defined as [BWx/BW0], where BWx is the body weight in grams at a given day x and BW0 is the body weight in grams on day 0. The tumor dimension was determined by measuring the longest tumor axis (L) and its perpendicular axis (W) with a digital caliper. The tumor volume (V) was calculated according to the equation [V=0.5×(LW^2)].

[9] = Whole body activity clearance (dose calibrator); parameters: species or system mice; settings: mouse, in vivo
Procedure: Whole body activity was measured by placing each mouse into a dose-calibrator. % Remaining activity was given by =[At/At=0] where At is the decay-corrected whole body activity at time t and At-0 is the total activity measured by dose calibrator p.i. The data were fit to a one-phase decay curve in GraphPad Prism and the biological decay constant K was calculated to be K=0.005638 h^−1 for ^177Lu-(picaga)-HSA and K=0.1415 h^−1 for ^177Lu-PSMA-617.
To approximate clearance of the ^177Lu-constructs, therapy cohort treated with ^177Lu-(picaga)-HSA and ^177Lu-PSMA-617 were monitored for residual whole-body activity remaining in the mouse. The whole-body activity remaining was plotted and the biological half-life in PSMA+tumor-bearing mice was determined using nonlinear regression in Graph Pad Prism (FIG. 16; Table 5). […] This is attributable to both the longer blood half-life because of the HSA-binding functionality and to the enhanced tumor uptake afforded by the longer blood circulation.

PSMA+PC3 PIP cells = assay: Cell uptake and internalization; type: cell-based
Procedure: The binding and internalization of ^177Lu-(picaga)-HSA and ^177Lu-PSMA-617 was evaluated in PSMA+PC3 PIP cells. In brief, 5×10^5 PC3 PiP cells are suspended, washed and aliquoted. The internalized fraction is determined using ^177Lu-ligand in PC3 PiP cells, with ligands radiolabeled at a specific activity of 0.08 mCi/nmol (3.0 MBq/nmol) and diluted in PBS. […] Subsequently, cell samples were lysed by addition of NaOH (1 M, 1 mL) to release cellular contents and internalized ^177Lu-(picaga)-HSA. Radioactive counts are quantitated separately using a gamma well counter, with each incubation conducted in triplicate.

PSMA+PC-3 PIP tumors [10] = assay: Pilot therapy study with ^177Lu-picaga-DUPA; settings: 3.3 MBq, n = 4, 14 days
Procedure: Twelve-week-old male mice were inoculated subcutaneously on the right shoulder with PSMA+PC-3 PIP cells (0.7×10^5/mouse in 1:1 DPBS pH 7.4: Matrigel). Tumors grew nine days before treatment with an approximate volume of 100 mm^3 at day 0. One group of mice (n=4) (cohort D) with statistically similar body weights and tumor volumes were injected at day 0 of the therapy study. Group D received 3.3 MBq of the radioligand via tail vein injection (^177Lu-picaga-DUPA). Following administration of radioligand, the mice were monitored by measuring the tumor size and body weight over 14 days. Mice were euthanized when the predefined end point criteria were reached, or when the study was terminated at day 14. The relative body weight (RBW) was defined as [BWx/BW0], where BWx is the body weight in grams at a given day x and BW0 is the body weight in grams on day 0. The tumor dimension was determined by measuring the longest tumor axis (L) and its perpendicular axis (W) with a digital caliper. The tumor volume (V) was calculated according to the equation [V=0.5×(LW^2)]. The relative tumor volume (RTV) was defined as [TVx/TV0], where TVz is the tumor volume in mm^3 at a given day x, and TV0 is the tumor volume in mm^3 at day 0.

PSMA [11] = target: T2, PSMA; assay: Displacement assay against ^99mTc(CO)3-MIP-1427 for binding affinity to PSMA; settings: displacement of ^99mTc-MIP-1427, DCFPyL as internal reference; read-out: affinity (Ki) to the PSMA target
Procedure: Stock solutions of Lu-(picaga)-HSA in (DMSO: H2O, 1:5) were prepared and concentrations were determined by ICP-OES in accordance with previously published method.
The Ki was determined by nonlinear regression analysis using GraphPad Prism software.
Prior to the assessment of the ^177Lu-labeled compounds, binding affinity to the biological target PSMA was evaluated.

T1 sequence (P02768 25-609): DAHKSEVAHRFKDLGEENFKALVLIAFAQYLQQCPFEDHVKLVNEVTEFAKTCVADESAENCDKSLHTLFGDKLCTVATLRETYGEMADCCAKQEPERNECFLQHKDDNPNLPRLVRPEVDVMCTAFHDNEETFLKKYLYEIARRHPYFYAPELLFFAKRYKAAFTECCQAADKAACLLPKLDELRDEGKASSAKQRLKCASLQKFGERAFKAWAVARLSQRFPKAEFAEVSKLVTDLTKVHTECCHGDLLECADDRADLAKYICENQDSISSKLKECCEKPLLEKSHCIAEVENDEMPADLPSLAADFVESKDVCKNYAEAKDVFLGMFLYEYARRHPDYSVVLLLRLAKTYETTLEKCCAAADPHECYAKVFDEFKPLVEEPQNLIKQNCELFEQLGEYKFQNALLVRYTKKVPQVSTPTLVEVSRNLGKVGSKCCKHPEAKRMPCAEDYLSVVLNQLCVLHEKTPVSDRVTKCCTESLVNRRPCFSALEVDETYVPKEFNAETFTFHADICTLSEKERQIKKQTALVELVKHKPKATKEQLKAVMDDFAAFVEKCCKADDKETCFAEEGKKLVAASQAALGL
T2 sequence (Q04609 whole entry): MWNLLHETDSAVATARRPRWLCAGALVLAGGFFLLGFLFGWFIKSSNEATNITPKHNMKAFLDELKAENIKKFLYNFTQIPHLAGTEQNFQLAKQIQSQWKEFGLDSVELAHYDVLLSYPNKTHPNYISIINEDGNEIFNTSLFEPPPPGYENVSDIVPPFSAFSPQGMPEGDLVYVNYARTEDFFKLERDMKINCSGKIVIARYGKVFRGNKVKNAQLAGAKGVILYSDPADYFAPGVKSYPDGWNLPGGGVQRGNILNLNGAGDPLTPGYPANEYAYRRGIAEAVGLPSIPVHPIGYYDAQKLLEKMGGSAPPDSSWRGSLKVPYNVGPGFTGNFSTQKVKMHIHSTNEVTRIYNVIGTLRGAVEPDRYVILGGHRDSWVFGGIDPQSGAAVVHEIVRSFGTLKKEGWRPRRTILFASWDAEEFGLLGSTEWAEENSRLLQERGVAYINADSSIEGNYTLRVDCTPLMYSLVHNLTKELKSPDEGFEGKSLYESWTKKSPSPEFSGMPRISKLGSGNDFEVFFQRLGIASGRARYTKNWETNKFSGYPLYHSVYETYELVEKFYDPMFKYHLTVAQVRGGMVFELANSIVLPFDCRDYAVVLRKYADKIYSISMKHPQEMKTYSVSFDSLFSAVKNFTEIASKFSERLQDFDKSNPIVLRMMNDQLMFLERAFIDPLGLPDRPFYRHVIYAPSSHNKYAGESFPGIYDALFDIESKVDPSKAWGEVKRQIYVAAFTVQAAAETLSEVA

O=C([O-])CN1CCN(CC(=O)[O-])CCN(Cc2cccc(C(=O)[O-])n2)CC1.[Lu+3] [Lu-mpaten]
difference in compound in the filtrate with or without HSA (human serum albumin [1]; 4.5% HSA in PBS vs PBS, chelator-only control): no significant difference

O=C(O)CC[C@H](NC(=O)N[C@@H](CCCCNC(=O)[C@H](Cc1ccc2ccccc2c1)NC(=O)[C@H]1CC[C@H](CNC(=O)CN2CCN(CC(=O)O)CCN(CC(=O)O)CCN(CC(=O)O)CC2)CC1)C(=O)O)C(=O)O [PSMA-617]
Ki (PSMA [2]): 6.9 ± 1.3 nM | binding to HSA compared to PBS (human serum albumin [3]): 55±1.2%

O=C([O-])CN1CCN(Cc2cccc(C(=O)[O-])n2)CCN(C(CCC(=O)NCCCCCNC(=O)CCC(NC(=O)NC(CCC(=O)O)C(=O)O)C(=O)O)C(=O)[O-])CC1.[18F-].[Sc+3] (stereo not drawn) [Sc-^18F(picaga)-DUPA]
stability in DPBS ([4]; DPBS, evaluated for up to 4 h): at least 4 h | radioHPLC after purification and storage in PBS for 4 hours [4]: no detectable decomposition even after 4 hours | radioHPLC after purification and storage in PBS for 4 hours ([4]; listed as [^18F]Sc—F(picaga)-DUPA): No degradation or defluorination is observed | stability in saline ([4]; saline, evaluated for up to 4 h): at least 4 h

O=C([O-])CN1CCNCCN(CC(=O)[O-])CC1.[Al+3].[OH-] [[(Al(NO2A)(OH)], reference compound]
pH at which hydroxide complex can form ([5]; literature): < 5

O=C([O-])CN1CCN(CC(=O)[O-])CCN(Cc2cccc(C(=O)[O-])n2)CC1.[Lu+3] [[Lu(L1)]]
complex formation pKa (pH of first complex species) ([5]; previously shown (Vaughn, B. A. et al. 2021)): 2.4

O=C([O-])CN1CCN(CC(=O)[O-])CCN(Cc2cccc(P(=O)([O-])[O-])n2)CC1.[Lu+3] [[Lu(L2)]]
complex formation pKa (pH of first complex species) [6]: 0.9

O=C([O-])CN1CCN(CC(=O)[O-])CCN(Cc2cccc(C(=O)[O-])n2)CC1.[OH-].[Sc+3] [[Sc(mpatcn)(OH)]^−]
pKa of hydroxide complex ([5]; deprotonation of Sc-bound inner sphere water, literature): 9.1

O=C([O-])CN1CCN(Cc2cccc(C(=O)[O-])n2)CCN(C(CCC(=O)NCCCCCNC(=O)CCC(NC(=O)NC(CCC(=O)O)C(=O)O)C(=O)O)C(=O)[O-])CC1.[47Sc+3] (stereo not drawn) [^47Sc(picaga)-DUPA]
Blood 2 h (PSMA + and PSMA − tumors; Blood): 0.19 ± 0.14 % ID/g | Bone 2 h (PSMA + and PSMA − tumors; Bone): 0.12 ± 0.06 % ID/g | Heart 2 h (PSMA + and PSMA − tumors; Heart): 0.11 ± 0.03 % ID/g | Kidney 2 h (PSMA + and PSMA − tumors; Kidney): 7.13 ± 3.73 % ID/g | Liver 2 h (PSMA + and PSMA − tumors; Liver): 1.22 ± 1.88 % ID/g | Muscle 2 h (PSMA + and PSMA − tumors; Muscle): 0.08 ± 0.03 % ID/g | PSMA + Tumor 2 h (PSMA + and PSMA − tumors; PSMA + Tumor): 12.74 ± 2.87 % ID/g | PSMA − Tumor 2 h (PSMA + and PSMA − tumors; PSMA − Tumor): 0.77 ± 1.11 % ID/g | Sm. Int. 2 h (PSMA + and PSMA − tumors; Sm. Int.): 0.18 ± 0.07 % ID/g | Spleen 2 h (PSMA + and PSMA − tumors; Spleen): 0.24 ± 0.10 % ID/g

O=C([O-])CN1CCN(CC(=O)[O-])CCN(CC(=O)NCC2CCC(C(=O)N[C@@H](Cc3ccc4ccccc4c3)C(=O)NCCCC[C@H](NC(=O)N[C@@H](CCC(=O)O)C(=O)O)C(=O)O)CC2)CCN(CC(=O)[O-])CC1.[177Lu+3] (stereo partly drawn) [^177Lu-PSMA-617, reference compound]
complex stability in dose formulation, 4 h ([7]; 4 h): >99% | complex stability in dose formulation, 24 h ([7]; 24 h): >99% | complex stability in dose formulation, 48 h ([7]; 48 h): >99% | complex stability in dose formulation, 14 d (% intact) ([7]; 14 d): 80% | relative body weight during therapy study (PSMA+PC-3 PIP tumors [8]): dropped during the study | tumor growth / survival compared to control cohort (PSMA+PC-3 PIP tumors [8]; PC-3 PIP tumor-bearing mice): marginally enhanced survival and delayed tumor growth | median survival (PSMA+PC-3 PIP tumors [8]; PC-3 PIP tumor-bearing mice, study to day 60): 21 days | biological decay constant K [9]: 0.1415 h^−1 | biological half-life t1/2 [9]: 4.9 h | % activity remaining in whole body p.i., 0 h ([9]; 0 h): 100.00 ± 0.00% | % activity remaining in whole body p.i., 24 h ([9]; 24 h): 3.35 ± 0.16% | % Internalization 2 h (PSMA+PC3 PIP cells; 2 h): 33.53±1.40% and 33.53% | % Uptake 2 h (PSMA+PC3 PIP cells; 2 h): 6.36±0.43% and 6.36% | % Internalization 4 h (PSMA+PC3 PIP cells; 4 h): 36.11±2.93% and 36.11% | % Uptake 4 h (PSMA+PC3 PIP cells; 4 h): 6.15±0.21% and 6.15% | % Internalization 24 h (PSMA+PC3 PIP cells; 24 h): 50.93±2.14% and 50.93% | % Uptake 24 h (PSMA+PC3 PIP cells; 24 h): 9.60±0.11% and 9.60% | % Uptake Blocking (PSMA+PC3 PIP cells; blocking with unlabeled glu-urea-glu PSMA targeting molecule): 0.45±0.03% and 0.45%

O=C([O-])CN1CCN(Cc2cccc(C(=O)[O-])n2)CCN(C(CCC(=O)NCCCCCNC(=O)CCC(NC(=O)NC(CCC(=O)O)C(=O)O)C(=O)O)C(=O)[O-])CC1.[177Lu+3] (stereo not drawn) [^177Lu-picaga-DUPA]
delay in tumor growth (pilot data) (PSMA+PC-3 PIP tumors [10]): delay in tumor growth for ^177Lu-PSMA-617 was similar to the delay observed in our pilot data

O=C([O-])CN1CCN(Cc2cccc(C(=O)[O-])n2)CCN(C(CCC(=O)NC(CCCCNC(=O)CCCc2ccc(I)cc2)C(=O)NCC2CCC(C(=O)NC(Cc3ccc4ccccc4c3)C(=O)NCCCCC(NC(=O)NC(CCC(=O)O)C(=O)O)C(=O)O)CC2)C(=O)[O-])CC1.[Lu+3] (stereo not drawn) [^natLu-(picaga)-HSA]
binding to HSA compared to PBS (human serum albumin [1]; 0.1 mM ^natLu complex, 4.5% HSA in PBS, 37° C., 15 min, 50 KDa filter): 80±3.3% | Ki (PSMA [11]): 1.4 ± 0.6 nM
